Key:
[1] = target: T1, 5-hydroxytryptamine receptor 1A (Homo sapiens, UniProt P08908)
T1 sequence (P08908 whole entry): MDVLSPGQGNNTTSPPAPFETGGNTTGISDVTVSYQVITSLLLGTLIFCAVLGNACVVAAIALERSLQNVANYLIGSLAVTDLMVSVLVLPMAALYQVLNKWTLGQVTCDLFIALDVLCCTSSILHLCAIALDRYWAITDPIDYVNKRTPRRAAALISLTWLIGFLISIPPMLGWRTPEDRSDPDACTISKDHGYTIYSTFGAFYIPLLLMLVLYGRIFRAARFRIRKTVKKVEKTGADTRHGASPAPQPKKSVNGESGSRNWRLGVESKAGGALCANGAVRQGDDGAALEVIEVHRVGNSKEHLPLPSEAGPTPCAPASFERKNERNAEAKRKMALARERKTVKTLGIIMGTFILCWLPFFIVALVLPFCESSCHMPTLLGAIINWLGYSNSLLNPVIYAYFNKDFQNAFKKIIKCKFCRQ

[2] = target: Beta-2 adrenergic receptor (Homo sapiens, UniProt P07550); type: functional, cell-based
Beta-2 adrenergic receptor, sequence (P07550 whole entry): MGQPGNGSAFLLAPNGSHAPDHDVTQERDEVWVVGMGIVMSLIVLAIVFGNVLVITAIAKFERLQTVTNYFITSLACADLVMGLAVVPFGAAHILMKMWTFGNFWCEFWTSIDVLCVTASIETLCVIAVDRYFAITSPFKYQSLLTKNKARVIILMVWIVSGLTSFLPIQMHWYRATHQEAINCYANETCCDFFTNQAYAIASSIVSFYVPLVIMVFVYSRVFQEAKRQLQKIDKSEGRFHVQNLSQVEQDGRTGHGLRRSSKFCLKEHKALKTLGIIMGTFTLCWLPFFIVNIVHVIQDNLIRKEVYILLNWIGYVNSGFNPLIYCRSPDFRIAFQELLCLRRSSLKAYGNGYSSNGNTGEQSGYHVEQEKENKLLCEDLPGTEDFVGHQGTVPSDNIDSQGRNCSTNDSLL

[3] = target: 5-hydroxytryptamine receptor 2A (Homo sapiens, UniProt P28223)
5-hydroxytryptamine receptor 2A, sequence (P28223 whole entry): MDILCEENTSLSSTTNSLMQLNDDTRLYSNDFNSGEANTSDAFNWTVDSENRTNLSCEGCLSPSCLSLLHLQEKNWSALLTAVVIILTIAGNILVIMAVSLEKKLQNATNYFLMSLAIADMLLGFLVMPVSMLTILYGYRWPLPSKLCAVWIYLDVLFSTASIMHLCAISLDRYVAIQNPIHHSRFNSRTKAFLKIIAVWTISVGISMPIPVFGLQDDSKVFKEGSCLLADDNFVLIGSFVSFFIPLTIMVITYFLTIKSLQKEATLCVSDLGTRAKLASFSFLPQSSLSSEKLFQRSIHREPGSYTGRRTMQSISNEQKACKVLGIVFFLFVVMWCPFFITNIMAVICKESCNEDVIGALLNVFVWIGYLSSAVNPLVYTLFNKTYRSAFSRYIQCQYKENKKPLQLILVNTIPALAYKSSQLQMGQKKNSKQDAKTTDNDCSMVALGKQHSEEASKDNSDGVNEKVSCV

Progesterone receptor = target: T2, Progesterone receptor (Homo sapiens, UniProt P06401)
T2 sequence (P06401 whole entry): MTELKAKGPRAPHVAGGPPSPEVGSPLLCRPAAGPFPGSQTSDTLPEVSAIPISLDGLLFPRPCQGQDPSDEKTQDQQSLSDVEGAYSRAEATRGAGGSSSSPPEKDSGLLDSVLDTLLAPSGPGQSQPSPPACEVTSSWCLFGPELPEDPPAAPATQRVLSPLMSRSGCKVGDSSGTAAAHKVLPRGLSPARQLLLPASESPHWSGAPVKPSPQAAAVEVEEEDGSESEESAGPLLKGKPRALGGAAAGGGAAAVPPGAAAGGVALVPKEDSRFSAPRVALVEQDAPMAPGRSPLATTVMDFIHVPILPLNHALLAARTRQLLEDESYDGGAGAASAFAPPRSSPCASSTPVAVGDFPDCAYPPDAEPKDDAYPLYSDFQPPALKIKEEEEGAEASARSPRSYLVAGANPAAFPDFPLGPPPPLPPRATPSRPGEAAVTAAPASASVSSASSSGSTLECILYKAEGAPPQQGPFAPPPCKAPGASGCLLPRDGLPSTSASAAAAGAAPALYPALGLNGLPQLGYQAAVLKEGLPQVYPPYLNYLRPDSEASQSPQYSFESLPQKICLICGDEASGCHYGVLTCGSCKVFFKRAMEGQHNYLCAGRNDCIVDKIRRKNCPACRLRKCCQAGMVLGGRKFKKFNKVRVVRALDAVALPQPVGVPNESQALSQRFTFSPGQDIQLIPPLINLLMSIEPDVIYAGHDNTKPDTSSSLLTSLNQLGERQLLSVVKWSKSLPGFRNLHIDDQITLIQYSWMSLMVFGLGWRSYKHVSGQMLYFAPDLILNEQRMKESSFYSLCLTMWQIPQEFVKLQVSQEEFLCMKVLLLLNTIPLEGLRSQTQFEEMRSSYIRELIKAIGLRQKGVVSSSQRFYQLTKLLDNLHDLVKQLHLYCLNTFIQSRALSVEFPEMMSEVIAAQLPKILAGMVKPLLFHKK

Androgen receptor = target: T3, Androgen receptor (Rattus norvegicus, UniProt P15207); type: functional
T3 sequence (P15207 whole entry): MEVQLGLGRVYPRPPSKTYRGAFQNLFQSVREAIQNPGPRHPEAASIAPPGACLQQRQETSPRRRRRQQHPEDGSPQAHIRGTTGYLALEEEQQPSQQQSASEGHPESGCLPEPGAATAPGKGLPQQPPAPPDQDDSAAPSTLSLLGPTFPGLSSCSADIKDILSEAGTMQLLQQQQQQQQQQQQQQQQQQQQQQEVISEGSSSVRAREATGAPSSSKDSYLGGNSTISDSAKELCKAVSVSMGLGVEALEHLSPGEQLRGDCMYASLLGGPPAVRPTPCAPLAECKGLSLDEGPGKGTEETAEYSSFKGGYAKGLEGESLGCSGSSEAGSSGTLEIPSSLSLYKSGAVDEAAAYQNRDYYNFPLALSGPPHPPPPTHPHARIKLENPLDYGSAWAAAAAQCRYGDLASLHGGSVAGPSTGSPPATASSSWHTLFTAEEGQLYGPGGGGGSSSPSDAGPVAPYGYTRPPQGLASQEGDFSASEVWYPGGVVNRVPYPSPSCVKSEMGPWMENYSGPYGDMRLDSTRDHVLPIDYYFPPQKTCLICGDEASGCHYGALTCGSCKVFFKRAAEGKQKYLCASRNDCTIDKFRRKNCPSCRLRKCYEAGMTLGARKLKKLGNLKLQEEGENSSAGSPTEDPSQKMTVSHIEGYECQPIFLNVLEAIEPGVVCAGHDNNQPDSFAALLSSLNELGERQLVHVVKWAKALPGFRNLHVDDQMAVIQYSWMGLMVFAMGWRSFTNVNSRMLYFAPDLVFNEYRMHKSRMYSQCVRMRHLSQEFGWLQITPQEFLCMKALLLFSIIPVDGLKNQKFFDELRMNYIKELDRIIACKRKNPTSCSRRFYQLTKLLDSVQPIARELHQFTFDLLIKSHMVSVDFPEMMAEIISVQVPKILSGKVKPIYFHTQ

D(1A) dopamine receptor = D(1A) dopamine receptor (Homo sapiens, UniProt P21728)
D(1A) dopamine receptor, sequence (P21728 whole entry): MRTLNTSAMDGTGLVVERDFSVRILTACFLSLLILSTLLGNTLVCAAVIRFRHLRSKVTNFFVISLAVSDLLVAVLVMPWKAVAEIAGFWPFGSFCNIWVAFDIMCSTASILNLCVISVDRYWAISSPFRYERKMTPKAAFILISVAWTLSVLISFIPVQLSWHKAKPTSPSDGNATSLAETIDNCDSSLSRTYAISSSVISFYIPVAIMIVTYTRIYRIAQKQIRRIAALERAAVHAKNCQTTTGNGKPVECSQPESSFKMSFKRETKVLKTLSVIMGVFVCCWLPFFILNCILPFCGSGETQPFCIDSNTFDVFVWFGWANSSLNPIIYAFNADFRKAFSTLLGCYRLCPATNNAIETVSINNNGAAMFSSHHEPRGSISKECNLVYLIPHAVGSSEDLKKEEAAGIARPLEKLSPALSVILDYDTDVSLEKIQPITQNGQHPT

[4] = target: T4, Alpha-2A adrenergic receptor (Homo sapiens, UniProt P08913)
T4 sequence (P08913 whole entry): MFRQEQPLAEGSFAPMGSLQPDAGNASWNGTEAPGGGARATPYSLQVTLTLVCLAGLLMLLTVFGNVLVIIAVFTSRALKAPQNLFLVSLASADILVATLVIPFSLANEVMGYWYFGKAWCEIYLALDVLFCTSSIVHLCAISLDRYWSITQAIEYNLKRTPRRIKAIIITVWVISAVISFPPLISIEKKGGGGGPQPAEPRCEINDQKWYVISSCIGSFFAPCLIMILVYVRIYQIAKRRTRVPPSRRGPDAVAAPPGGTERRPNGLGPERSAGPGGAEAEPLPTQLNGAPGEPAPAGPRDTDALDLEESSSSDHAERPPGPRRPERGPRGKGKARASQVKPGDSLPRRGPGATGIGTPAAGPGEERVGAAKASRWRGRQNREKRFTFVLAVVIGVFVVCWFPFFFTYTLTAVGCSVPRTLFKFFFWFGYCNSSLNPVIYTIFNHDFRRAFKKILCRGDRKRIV

[5] = target: Neurotensin receptor type 1 (Homo sapiens, UniProt P30989)
Neurotensin receptor type 1, sequence (P30989 whole entry): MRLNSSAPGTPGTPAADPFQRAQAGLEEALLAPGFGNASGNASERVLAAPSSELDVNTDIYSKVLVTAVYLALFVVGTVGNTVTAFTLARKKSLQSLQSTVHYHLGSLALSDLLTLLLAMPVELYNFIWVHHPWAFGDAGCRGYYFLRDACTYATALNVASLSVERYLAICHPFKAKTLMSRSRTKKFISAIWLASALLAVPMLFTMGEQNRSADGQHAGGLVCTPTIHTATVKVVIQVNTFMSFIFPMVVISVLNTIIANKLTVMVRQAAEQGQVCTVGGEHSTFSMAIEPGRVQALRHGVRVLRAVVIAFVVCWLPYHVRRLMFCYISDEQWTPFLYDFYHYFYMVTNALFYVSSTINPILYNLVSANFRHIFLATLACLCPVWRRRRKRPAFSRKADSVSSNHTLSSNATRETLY
Further: assay procedure not described here.

SMILES | AC50 [1] | AC50 [2] | AC50 [3] | AC50 (Progesterone receptor) | AC50 (D(1A) dopamine receptor) | AC50 [4] | other results
COc1ccccc1N1CCN(CCCNc2cc(=O)n(C)c(=O)n2C)CC1 | 0.492 µM |  |  |  |  |  | 
CC(C)C(=O)c1c(C(C)C)nn2ccccc12 [IBUDILAST] |  | > 30 µM |  |  |  |  | 
C=CCC1(C(C)CC)C(=O)NC(=O)NC1=O (stereo unspecified) [TALBUTAL] |  |  | > 10 µM |  |  |  | 
CC(C)Cn1cnc2c(N)nc3ccccc3c21 [IMIQUIMOD] | > 10 µM |  |  | > 30 µM |  |  | 
OC(CNCC(O)C1CCc2cc(F)ccc2O1)C1CCc2cc(F)ccc2O1 (stereo unspecified) [NEBIVOLOL] | 0.14 µM |  |  |  |  |  | 
CCC1(CC)C(=O)NCC(C)C1=O (stereo unspecified) [METHYPRYLON] |  | > 30 µM |  |  |  |  | AC50 (Androgen receptor): > 30 µM
COc1ccc2c3c1O[C@H]1[C@@H](O)C=C[C@H]4[C@@H](C2)N(C)CC[C@@]341 [CODEINE] | > 10 µM |  | > 10 µM | > 30 µM | > 10 µM | > 10 µM | AC50 [5]: > 30 µM
CN1CCC(=C2c3ccccc3CCc3sccc32)CC1 [PIZOTYLINE] | 0.338 µM | > 30 µM | 0.0002 µM |  |  | 0.577 µM | 
N#Cc1ccc([C@H]2CCc3cncn32)c(F)c1 [OSILODROSTAT] | > 10 µM |  |  |  | > 10 µM | > 10 µM | AC50 [5]: > 10 µM
CCOC(=O)[N-]c1cn(N2CCOCC2)n[o+]1 [MOLSIDOMINE] |  | > 30 µM |  |  |  |  | 
CNS(=O)(=O)Cc1ccc2[nH]cc(CCN(C)C)c2c1 |  | > 30 µM |  | > 30 µM | > 10 µM | > 10 µM | AC50 [5]: > 30 µM
CC(C(=O)O)c1ccc(N2Cc3ccccc3C2=O)cc1 (stereo unspecified) [INDOPROFEN] |  |  | > 10 µM |  | > 30 µM |  | 
C#C[C@]1(O)CC[C@H]2[C@@H]3CCC4=Cc5oncc5C[C@]4(C)[C@H]3CC[C@@]21C [DANAZOL] |  | > 30 µM |  |  |  |  | 
CCCN(CCC)C(=O)C(CCC(=O)O)NC(=O)c1ccccc1 (stereo unspecified) [PROGLUMIDE] | > 10 µM |  |  | > 30 µM | > 10 µM | > 10 µM | AC50 [5]: > 30 µM
CO/N=C(\C(=O)N[C@@H]1C(=O)N2C(C(=O)O)=C(CSc3nnnn3C)CS[C@H]12)c1csc(N)n1 [CEFMENOXIME] |  | > 30 µM |  |  |  |  | 
CN1CCN(CC/C=C2/c3ccccc3Sc3ccc(S(=O)(=O)N(C)C)cc32)CC1 [THIOTHIXENE] |  |  |  | > 30 µM | 0.0774 µM | 0.755 µM | AC50 [5]: > 30 µM
CC[C@@H]1C(=O)OC[C@@H]1Cc1cncn1C [PILOCARPINE] | > 10 µM | > 30 µM | 4.72 µM | > 30 µM |  | > 10 µM | 
NCC(=O)CCC(=O)O [AMINOLEVULINIC ACID] |  | > 30 µM |  |  |  |  | 
CC1(C)O[C@@H]2C[C@H]3[C@@H]4CCC5=CC(=O)C=C[C@]5(C)[C@H]4[C@@H](O)C[C@]3(C)[C@]2(C(=O)CO)O1 [DESONIDE] |  | > 30 µM |  |  |  |  | 
C/C(O)=C(\C#N)C(=O)Nc1ccc(C(F)(F)F)cc1 [TERIFLUNOMIDE] |  | > 30 µM |  |  |  |  | AC50 (Androgen receptor): > 30 µM
CCN1CCN(C(=O)N[C@@H](C(=O)N[C@@H]2C(=O)N3C(C(=O)O)=C(CSc4nnnn4C)CS[C@H]23)c2ccc(O)cc2)C(=O)C1=O [CEFOPERAZONE] |  | > 30 µM |  |  |  |  | 
COc1ccc(CCN(C)CCCC(C#N)(c2cc(OC)c(OC)c(OC)c2)C(C)C)cc1OC (stereo unspecified) [GALLOPAMIL] |  | > 30 µM |  |  |  |  | 
CC(C)(C)c1cc(C(C)(C)C)c(NC(=O)c2c[nH]c3ccccc3c2=O)cc1O [IVACAFTOR] | > 10 µM |  | > 10 µM | > 30 µM | > 10 µM | > 10 µM | 
COc1cc2c(N)nc(N3CCN(C(=O)OCC(C)(C)O)CC3)nc2c(OC)c1OC [TRIMAZOSIN] |  | > 30 µM |  |  |  |  | AC50 (Androgen receptor): 17 µM
CCCc1nc(C(C)(C)O)c(C(=O)OCc2oc(=O)oc2C)n1Cc1ccc(-c2ccccc2-c2nnn[nH]2)cc1 [OLMESARTAN MEDOXOMIL] | > 10 µM |  | > 10 µM | > 30 µM | > 10 µM | > 10 µM | AC50 [5]: > 30 µM
C[C@H](N)[C@H](O)c1cccc(O)c1 [METARAMINOL] |  |  | > 10 µM |  |  |  | 

Reference: ChEMBL document CHEMBL5291721, “A preclinical secondary pharmacology resource illuminates target-adverse drug reaction associations of marketed drugs” (Nat Commun, 2023)
